Measurements: patent US20190364895A1, “ANTIMICROBIAL COMPOUNDS OR PRECURSORS THEREOF COMRPISING ONE OR MORE CATIONIC CENTERS AND A COATING-INCORPORATION GROUP” (Exigence Technologies Inc., priority 2016, published 2019)

System: E. coli (ATCC 25922)
Test: Biocidal activity of coated hard-substrates, ISO 22196 methodology
Format: cell-based
Conditions: 5% FBS and MH Broth
Protocol: Tables 27 to 35 summarize the biocidal activity of the coated hard-substrates as assessed using the ISO 22196 methodology. Briefly, control and chlorinated samples of the coated hard-substrates (chlorinated at 200 ppm for 10 minutes) were challenged with E. coli (ATCC 25922). Using a pipette, 200 μL of test inoculum were transferred at a concentration of 1-2×10^6 CFU/mL (in sterile DI water, 5% fetal bovine serum or 100% Mueller-Hinton broth) onto a 50 mm×50 mm plastic test surface in a sterile petri dish. The test inoculum was covered with a piece of PET (polyethylene terephthalate) film that measured 40 mm×40 mm. A slight pressure was applied to the film so that the test inoculum spread to the edges. The test inoculum was kept within the edges of the film and was capped with the lid of the petri dish. Contact times for the samples were 10, 30 and 60 minutes. Then the samples were quenched with 10 mL of sterile 0.05 M sodium thiosulfate solution to remove all oxidative chlorine in the petri dish. This quenching step was followed by repetitive washing and 1 minute of sonication. […] The plates were incubated at 37° C. for about 16 hours to about 18 hours, and viable bacterial colonies were recorded for kill kinetics analysis. The logarithm reduction was determined as follows: […]

## CC1(C)CC([N+](C)(C)CCCC[P+](CCCC[P+](CCCC[N+](C)(CCCN)CCCN)(c2ccccc2)c2ccccc2)(c2ccccc2)c2ccccc2)CC(C)(C)N1.[Br-].[Br-].[Br-].[Br-] [PIP—C4-P—C4-P—C4-BIS-C3-NH2]
  biocidal activity (in words): had biocidal activity

## CCCC[P+](C)(CCCC[P+](CCCCCCCCCC[N+](C)(CCCN)CCCN)(c1ccccc1)c1ccccc1)c1ccccc1.[Br-].[Br-].[Br-] (centres unmarked) [C4-P—C4-P—C10-BIS-C3-NH2]
  biocidal activity (in words): poor biocidal activity
